Species: Rattus norvegicus
Assay: DrugMatrix - Regimen: Daily Repeat
Format: toxicity, organism-based, Sprague-Dawley
Design: regimen Daily Repeat, gender Male, age 6-8 weeks
Conditions: in vivo, po, route oral GAVAGE, vehicle .5 % CMC; for ABSOLUTE BASOPHIL / ABSOLUTE EOSINOPHIL / ABSOLUTE LYMPHOCYTE / ABSOLUTE MONOCYTE / ABSOLUTE SEGMENTED NEUTROPHIL / BASOPHIL / EOSINOPHIL / ERYTHROCYTE COUNT / HEMATOCRIT / HEMOGLOBIN / LEUKOCYTE COUNT / LYMPHOCYTE / MEAN CORPUSCULAR HEMOGLOBIN / MEAN CORPUSCULAR HEMOGLOBIN CONCENTRATION / MEAN CORPUSCULAR VOLUME / MONOCYTE / NEUTROPHIL / NUCLEATED RED BLOOD CELLS / PLATELET COUNT: tissue Blood; for ALANINE AMINOTRANSFERASE / ALBUMIN / ALKALINE PHOSPHATASE / ASPARTATE AMINOTRANSFERASE / BLOOD UREA NITROGEN / CARBON DIOXIDE / CHLORIDE / CHOLESTEROL / CREATINE PHOSPHOKINASE / CREATININE / GLUCOSE / LACTATE DEHYDROGENASE / LIPASE / PHOSPHORUS / POTASSIUM / SODIUM / TOTAL BILIRUBIN / TOTAL PROTEIN / URIC ACID: tissue Plasma
[1] = 80 mg/kg, 72 h, dose level Low, time 3 day
[2] = 80 mg/kg, 120 h, dose level Low, time 5 day
[3] = 1500 mg/kg, 72 h, dose level High, time 3 day
[4] = 1500 mg/kg, 120 h, dose level High, time 5 day

## O=c1cnn([C@@H]2O[C@H](CO)[C@@H](O)[C@H]2O)c(=O)[nH]1 [6-AZAURIDINE]
[1]
  ABSOLUTE BASOPHIL: 0 CELLS/uL
  ABSOLUTE EOSINOPHIL: 0 CELLS/uL
  ABSOLUTE LYMPHOCYTE: 15386 CELLS/uL
  ABSOLUTE MONOCYTE: 95.33 CELLS/uL
  ABSOLUTE SEGMENTED NEUTROPHIL: 852 CELLS/uL
  BASOPHIL: 0%
  EOSINOPHIL: 0%
  ERYTHROCYTE COUNT: 5.24 x10E6/uL
  HEMATOCRIT: 34.9%
  HEMOGLOBIN: 13.33 G/DL
  LEUKOCYTE COUNT: 16.33 x10E3/uL
  LYMPHOCYTE: 94%
  MEAN CORPUSCULAR HEMOGLOBIN: 25.47 pg
  MEAN CORPUSCULAR HEMOGLOBIN CONCENTRATION: 38.2 G/DL
  MEAN CORPUSCULAR VOLUME: 66.6 fL
  MONOCYTE: 0.67%
  NEUTROPHIL: 5.33%
  NUCLEATED RED BLOOD CELLS: 0.33 /100WBC
  PLATELET COUNT: 1177.67 x10E3/uL
  ALANINE AMINOTRANSFERASE: 32.67 u/L
  ALBUMIN: 4.23 G/DL
  ALKALINE PHOSPHATASE: 410.67 u/L
  ASPARTATE AMINOTRANSFERASE: 74.33 u/L
  BLOOD UREA NITROGEN: 15.33 mg/dL
  CARBON DIOXIDE: 25 mmol/L
  CHLORIDE: 106.67 MEQ/L
  CHOLESTEROL: 73.67 mg/dL
  CREATINE PHOSPHOKINASE: 134.33 u/L
  CREATININE: 0.2 mg/dL
  GLUCOSE: 173.33 mg/dL
  LACTATE DEHYDROGENASE: 86.67 u/L
  LIPASE: 10.33 u/L
  PHOSPHORUS: 12.67 mg/dL
  POTASSIUM: 6.8 MEQ/L
  SODIUM: 148.73 MEQ/L
  TOTAL BILIRUBIN: 0.2 mg/dL
  TOTAL PROTEIN: 5.93 G/DL
  URIC ACID: 1.7 mg/dL
[2]
  ABSOLUTE BASOPHIL: 0 CELLS/uL
  ABSOLUTE EOSINOPHIL: 0 CELLS/uL
  ABSOLUTE LYMPHOCYTE: 12013.67 CELLS/uL
  ABSOLUTE MONOCYTE: 153.67 CELLS/uL
  ABSOLUTE SEGMENTED NEUTROPHIL: 1099.33 CELLS/uL
  BASOPHIL: 0%
  EOSINOPHIL: 0%
  ERYTHROCYTE COUNT: 5.94 x10E6/uL
  HEMATOCRIT: 37.2%
  HEMOGLOBIN: 13.73 G/DL
  LEUKOCYTE COUNT: 13.27 x10E3/uL
  LYMPHOCYTE: 90.67%
  MEAN CORPUSCULAR HEMOGLOBIN: 23.2 pg
  MEAN CORPUSCULAR HEMOGLOBIN CONCENTRATION: 36.93 G/DL
  MEAN CORPUSCULAR VOLUME: 62.77 fL
  MONOCYTE: 1.33%
  NEUTROPHIL: 8%
  NUCLEATED RED BLOOD CELLS: 0.33 /100WBC
  PLATELET COUNT: 1474.67 x10E3/uL
  ALANINE AMINOTRANSFERASE: 38 u/L
  ALBUMIN: 4.23 G/DL
  ALKALINE PHOSPHATASE: 363.67 u/L
  ASPARTATE AMINOTRANSFERASE: 88.33 u/L
  BLOOD UREA NITROGEN: 20.33 mg/dL
  CARBON DIOXIDE: 22 mmol/L
  CHLORIDE: 104.33 MEQ/L
  CHOLESTEROL: 68 mg/dL
  CREATINE PHOSPHOKINASE: 230.33 u/L
  CREATININE: 0.22 mg/dL
  GLUCOSE: 166.67 mg/dL
  LACTATE DEHYDROGENASE: 119.33 u/L
  LIPASE: 10.33 u/L
  PHOSPHORUS: 13.2 mg/dL
  POTASSIUM: 6.55 MEQ/L
  SODIUM: 146.7 MEQ/L
  TOTAL BILIRUBIN: 0.13 mg/dL
  TOTAL PROTEIN: 6.17 G/DL
  URIC ACID: 2.23 mg/dL
[3]
  ABSOLUTE BASOPHIL: 0 CELLS/uL
  ABSOLUTE EOSINOPHIL: 0 CELLS/uL
  ABSOLUTE LYMPHOCYTE: 9340.33 CELLS/uL
  ABSOLUTE MONOCYTE: 29.33 CELLS/uL
  ABSOLUTE SEGMENTED NEUTROPHIL: 363.67 CELLS/uL
  BASOPHIL: 0%
  EOSINOPHIL: 0%
  ERYTHROCYTE COUNT: 5.26 x10E6/uL
  HEMATOCRIT: 32.03%
  HEMOGLOBIN: 12.07 G/DL
  LEUKOCYTE COUNT: 9.73 x10E3/uL
  LYMPHOCYTE: 96%
  MEAN CORPUSCULAR HEMOGLOBIN: 22.9 pg
  MEAN CORPUSCULAR HEMOGLOBIN CONCENTRATION: 37.7 G/DL
  MEAN CORPUSCULAR VOLUME: 60.9 fL
  MONOCYTE: 0.33%
  NEUTROPHIL: 3.67%
  NUCLEATED RED BLOOD CELLS: 0 /100WBC
  PLATELET COUNT: 1317.67 x10E3/uL
  ALANINE AMINOTRANSFERASE: 17.33 u/L
  ALBUMIN: 4.3 G/DL
  ALKALINE PHOSPHATASE: 341 u/L
  ASPARTATE AMINOTRANSFERASE: 104.67 u/L
  BLOOD UREA NITROGEN: 15.33 mg/dL
  CARBON DIOXIDE: 18.67 mmol/L
  CHLORIDE: 104.33 MEQ/L
  CHOLESTEROL: 69.33 mg/dL
  CREATINE PHOSPHOKINASE: 704 u/L
  CREATININE: 0.25 mg/dL
  GLUCOSE: 179.67 mg/dL
  LACTATE DEHYDROGENASE: 167.67 u/L
  LIPASE: 10 u/L
  PHOSPHORUS: 12.03 mg/dL
  POTASSIUM: 6.43 MEQ/L
  SODIUM: 147.5 MEQ/L
  TOTAL BILIRUBIN: 0.2 mg/dL
  TOTAL PROTEIN: 5.87 G/DL
  URIC ACID: 1.67 mg/dL
[4]
  ABSOLUTE BASOPHIL: 0 CELLS/uL
  ABSOLUTE EOSINOPHIL: 44.67 CELLS/uL
  ABSOLUTE LYMPHOCYTE: 13100 CELLS/uL
  ABSOLUTE MONOCYTE: 44.67 CELLS/uL
  ABSOLUTE SEGMENTED NEUTROPHIL: 1177.33 CELLS/uL
  BASOPHIL: 0%
  EOSINOPHIL: 0.33%
  ERYTHROCYTE COUNT: 4.96 x10E6/uL
  HEMATOCRIT: 30%
  HEMOGLOBIN: 11.57 G/DL
  LEUKOCYTE COUNT: 14.37 x10E3/uL
  LYMPHOCYTE: 91%
  MEAN CORPUSCULAR HEMOGLOBIN: 23.37 pg
  MEAN CORPUSCULAR HEMOGLOBIN CONCENTRATION: 38.53 G/DL
  MEAN CORPUSCULAR VOLUME: 60.57 fL
  MONOCYTE: 0.33%
  NEUTROPHIL: 8.33%
  NUCLEATED RED BLOOD CELLS: 0 /100WBC
  PLATELET COUNT: 1665.67 x10E3/uL
  ALANINE AMINOTRANSFERASE: 14.33 u/L
  ALBUMIN: 3.5 G/DL
  ALKALINE PHOSPHATASE: 153 u/L
  ASPARTATE AMINOTRANSFERASE: 98.33 u/L
  BLOOD UREA NITROGEN: 16.33 mg/dL
  CARBON DIOXIDE: 33 mmol/L
  CHLORIDE: 105.33 MEQ/L
  CHOLESTEROL: 68.67 mg/dL
  CREATINE PHOSPHOKINASE: 888.33 u/L
  CREATININE: 0.12 mg/dL
  GLUCOSE: 159 mg/dL
  LACTATE DEHYDROGENASE: 129 u/L
  LIPASE: 9.33 u/L
  PHOSPHORUS: 11.03 mg/dL
  POTASSIUM: 6.72 MEQ/L
  SODIUM: 145.83 MEQ/L
  TOTAL BILIRUBIN: 0.2 mg/dL
  TOTAL PROTEIN: 4.83 G/DL
  URIC ACID: 1.5 mg/dL
